Format in all cases: in vivo
Experiment [1] concerns rice leafroller (Cnaphalocrocis medinalis). In words: Insecticidal effect on rice leafroller (Test Example 3). To be noted: 500 ppm, 25° C., humidity 70%; for Insecticidal effect on rice leafroller (Test Example 3), judged grade / Insecticidal effect (Test Example 3), judged from mortality: rice lamina dip; for Insecticidal effect on rice leafroller (Test Example 3), judged grade: third-instar larvae; for Insecticidal effect on rice leafroller (Test Example 3), judged grade / Insecticidal effect, Test Example 3: four days after inoculation; for Insecticidal effect, Test Example 3: rice lamina immersed; for Insecticidal effect (Test Example 3), judged from mortality: 4 days after inoculation. In short, it runs like this: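 Groups of 10 third-instar larvae, in triplicate, are placed on air-dried lamina resting on wet filter paper. Incubation runs four days at 25° C with 70% humidity before survivors and dead are tallied.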

The test system of experiment [2] is common cutworm (Spodoptera Litura). Put plainly: Insecticidal effect on common cutworm (Test Example 2). To be noted: 500 ppm, 25° C.; for Insecticidal effect on common cutworm (Test Example 2), judged grade / Insecticidal effect (Test Example 2), judged from mortality: cabbage leaf dip; for Insecticidal effect on common cutworm (Test Example 2), judged grade: second-instar larvae; for Insecticidal effect on common cutworm (Test Example 2), judged grade / Insecticidal effect, Test Example 2: eight days after inoculation; for Insecticidal effect, Test Example 2: cabbage leaf immersed; for Insecticidal effect (Test Example 2), judged from mortality: 8 days after inoculation. In short, it runs like this:
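Mortality was scored 8 days post-inoculation, using three groups of 10 second-instar larvae kept at 25 °C in closed 9 cm dishes on air-dried treated material. The insecticidal effect was graded from calculated mortality by a set criterion.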

Experiment [3] deals with diamondback moth (Plutella xylostella). Put plainly: Insecticidal effect on diamondback moth (Test Example 1). The note with it: for Insecticidal effect on diamondback moth (Test Example 1), judged grade: mortality judged according to the criterion shown in Test Example 1; for Insecticidal effect, Test Example 1 / Insecticidal effect (Test Example 1), judged from mortality: diamondback moth; for Insecticidal effect (Test Example 1), judged from mortality: judged by the criterion of Test Example 1. In short, it runs like this:
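Eggs laid by adult moths on Chinese cabbage seedlings, which were immersed in test solution, air-dried and kept at 25 °C. Hatched insects counted 6 days after immersion and mortality calculated, with effect graded by criterion; triplicate groups of 10 insects.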

[4] abbreviates: third-instar larvae of rice leafroller.
The mark [5] stands for this setting: second-instar larvae of common cutworm.
Where [6] appears, read: judged by the mortality criterion of Test Example 1.
The mark [7] stands for this setting: rice leafroller third-instar larvae.
Setting [8] is: common cutworm second-instar larvae.
Setting [9] is: mortality judged by criterion of Test Example 1.

SMILES strings stand for the structures.

As for `CC(C)NC(=O)c1c(F)cccc1C(=O)Nc1ccc(C(F)(C(F)(F)F)C(F)(F)F)cc1Cl` [compound 507], the “Insecticidal effect on rice leafroller (Test Example 3), judged grade” value (from here on “Insecticidal effect on rice leafroller”) in experiment [1] is recorded as “A (100)”. The “Insecticidal effect on common cutworm (Test Example 2), judged grade” value (“Insecticidal effect on common cutworm” for short) in experiment [2] was “B (99-90)”. Further, the “Insecticidal effect on diamondback moth (Test Example 1), judged grade” value (“Insecticidal effect on diamondback moth” below) in experiment [3] was “A (100)”.
For `CC(C)NC(=O)c1c(Br)cccc1C(=O)Nc1ccc(C(F)(F)F)cc1` [compound 261], the “Insecticidal effect, Test Example 3” value in experiment [1] (setting [4]) is “D (79-50)”. In experiment [2] (setting [5]), the “Insecticidal effect, Test Example 2” value was “A (100)”. For the same compound, the “Insecticidal effect, Test Example 1” value in experiment [3] (setting [6]) is “A (100)”.
As for `Cc1cc(OC(F)(F)C(F)F)ccc1NC(=O)c1ccccc1C(=O)NC(C)C` [compound 60], in experiment [1] (setting [4]), the “Insecticidal effect, Test Example 3” value is “A (100)”. Moreover, the “Insecticidal effect, Test Example 2” value in experiment [2] (setting [5]) is listed as “A (100)”. Further, the “Insecticidal effect, Test Example 1” value in experiment [3] (setting [6]) is given as “A (100)”.
As to `Cc1cc(C(F)(F)C(F)(F)F)ccc1NC(=O)c1ccccc1C(=O)N(C(C)C)C(C)C` [compound 1071], the “Insecticidal effect, Test Example 3” value in experiment [1] (setting [7]) is on record as “A (100)”. Further, the “Insecticidal effect, Test Example 2” value in experiment [2] (setting [8]) is “C (89-80)”. Moreover, the “Insecticidal effect, Test Example 1” value in experiment [3] (setting [9]) is reported as “A (100)”.
For `Cc1cc(OC(F)(F)C(F)Cl)ccc1NC(=O)c1ccccc1C(=O)NC(C)C` (stereo not drawn) [compound 62], in experiment [1] (setting [4]), the “Insecticidal effect, Test Example 3” value was “A (100)”. Also, the “Insecticidal effect, Test Example 2” value in experiment [2] (setting [5]) is reported as “A (100)”. Further, the “Insecticidal effect, Test Example 1” value in experiment [3] (setting [6]) is “A (100)”.
For the compound `Cc1cc(OC(F)F)c(Cl)cc1NC(=O)c1cccc(I)c1C(=O)NC(C)C` [compound 396], the “Insecticidal effect, Test Example 3” value in experiment [1] (setting [4]) is listed as “A (100)”. Further, in experiment [2] (setting [5]), the “Insecticidal effect, Test Example 2” value is given as “A (100)”. Also, in experiment [3] (setting [6]), the “Insecticidal effect, Test Example 1” value is reported as “A (100)”.
For `Cc1cc(C(F)(F)C(F)(F)F)ccc1NC(=O)c1cccc(Cl)c1C(=O)NC(C)(C)CO` [compound 1317], in experiment [1] (setting [7]), the “Insecticidal effect, Test Example 3” value is “A (100)”. Further, in experiment [2] (setting [8]), the “Insecticidal effect, Test Example 2” value was “C (89-80)”. Moreover, the “Insecticidal effect, Test Example 1” value in experiment [3] (setting [9]) is “A (100)”.
Take `CCCNC(=O)c1c(Cl)cccc1C(=O)Nc1ccc(C(F)(F)C(F)(F)F)cc1F` [compound 1491]: in experiment [1] (setting [4]), the “Insecticidal effect (Test Example 3), judged from mortality” value is given as “A (100)”. Besides, the “Insecticidal effect (Test Example 2), judged from mortality” value in experiment [2] (setting [5]) is reported as “A (100)”. For the same compound, the “Insecticidal effect (Test Example 1), judged from mortality” value in experiment [3] is “A (100)”.
With `CC(C)NC(=O)c1c(F)cccc1C(=O)Nc1ccc(SC(F)(F)C(F)(F)Br)cc1` [compound 480], the “Insecticidal effect on rice leafroller” value in experiment [1] is “A (100)”. Besides, the “Insecticidal effect on common cutworm” value in experiment [2] is on record as “B (99-90)”. Besides, in experiment [3], the “Insecticidal effect on diamondback moth” value is “A (100)”.
In the case of `CCN(CC)C(=O)c1c(I)cccc1C(=O)Nc1ccc(C(F)(F)F)cc1` [compound 1558], the “Insecticidal effect (Test Example 3), judged from mortality” value in experiment [1] (setting [4]) is listed as “A (100)”. Besides, the “Insecticidal effect (Test Example 2), judged from mortality” value in experiment [2] (setting [5]) is on record as “C (89-80)”. In addition, the “Insecticidal effect (Test Example 1), judged from mortality” value in experiment [3] was “A (100)”.
With `CC(C)NC(=O)c1c(Cl)cccc1C(=O)Nc1ccc(C(F)(F)C(F)(F)C(F)(F)C(F)(F)F)cc1` [compound 91], the “Insecticidal effect, Test Example 3” value in experiment [1] (setting [4]) is “A (100)”. Further, in experiment [2] (setting [5]), the “Insecticidal effect, Test Example 2” value is on record as “A (100)”. The “Insecticidal effect, Test Example 1” value in experiment [3] (setting [6]) is on record as “A (100)”.
On to `Cc1cc(OC(F)(F)F)ccc1NC(=O)c1cccc(F)c1C(=O)NC(C)C` [compound 510], for which the “Insecticidal effect on rice leafroller” value in experiment [1] is recorded as “A (100)”. Moreover, in experiment [2], the “Insecticidal effect on common cutworm” value is listed as “B (99-90)”. In experiment [3], the “Insecticidal effect on diamondback moth” value is “A (100)”.
For `Cc1cc(Cl)ccc1NC(=O)c1ccccc1C(=O)NC(C)(C)C` [compound 927], the “Insecticidal effect on rice leafroller” value in experiment [1] is “A (100)”. For the same compound, the “Insecticidal effect on common cutworm” value in experiment [2] is reported as “A (100)”. Besides, in experiment [3], the “Insecticidal effect on diamondback moth” value was “A (100)”.
For the compound `CC(C)NC(=O)c1c(F)cccc1C(=O)Nc1ccc(C(F)(F)C(F)(F)C(F)(F)F)cc1` [compound 473], the “Insecticidal effect on rice leafroller” value in experiment [1] is given as “A (100)”. In addition, in experiment [2], the “Insecticidal effect on common cutworm” value is given as “A (100)”. The “Insecticidal effect on diamondback moth” value in experiment [3] is on record as “A (100)”.
